The target of one assay is T1, full-length human CSNK1D (Homo sapiens, UniProt P48730).
T1 construct: N-terminal Glutathion-S-Transferase (GST) and full-length human CSNK1D; purchased Life Technologies PV3665; host or cells: baculovirus infected insect cells
The assay is described as follows: CSNK1D Assay (ADP-Glo, 1 μM ATP). Format: biochemical. The conditions noted are these: Table 3, read-out: CSNK1D IC50 [mol/l] (median). A digest of the protocol: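 Enzyme is N-terminal GST-tagged full-length human CSNK1D from baculovirus-infected insect cells (typically about 0.5 ng/μL), with a biotinylated peptide substrate and 1 μM ATP. Compound pre-incubated 15 min at 22° C in HEPES pH 7.5 buffer; ADP formed is read by ADP-Glo luminescence.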
A general note: ADP-Glo first removes unused ATP, then detects ADP through luciferase.

Assay [1] deals with T2, full-length human CSNK1A1 (Homo sapiens, UniProt P48729).
T2 construct: N-terminal Glutathion-S-Transferase (GST) and full-length human CSNK1A1; purchased Life Technologies PV4174; host or cells: baculovirus infected insect cells
T2 sequence (P48729 whole entry): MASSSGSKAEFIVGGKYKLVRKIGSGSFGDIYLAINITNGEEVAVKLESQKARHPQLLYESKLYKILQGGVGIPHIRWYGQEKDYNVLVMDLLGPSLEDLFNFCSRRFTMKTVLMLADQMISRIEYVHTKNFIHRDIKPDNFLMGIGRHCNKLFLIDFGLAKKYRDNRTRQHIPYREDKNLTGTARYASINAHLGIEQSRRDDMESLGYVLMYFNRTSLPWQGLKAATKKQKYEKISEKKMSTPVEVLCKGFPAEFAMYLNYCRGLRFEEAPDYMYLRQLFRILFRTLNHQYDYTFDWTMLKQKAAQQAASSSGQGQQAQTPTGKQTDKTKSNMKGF
Nature of the assay: CSNK1A1 High ATP Assay (ADP-Glo, 1 mM ATP).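 Also: 30 min kinase reaction at 22 °C with 100 µM peptide substrate.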 The conditions noted are these: Table 3, read-out: CSNK1A1 high ATP assay IC50 [mol/l] (median). Format: biochemical. The method in brief:
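GST-tagged full-length human CSNK1A1 from baculovirus-infected insect cells (typically about 0.4 ng/μL), pre-incubated with compound 15 min at 22 °C. Reaction with biotinylated peptide biotin-Ahx-KRRRAL-pS-VASLPGL at 1 mM ATP. ADP formed read by ADP-Glo luminescence.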

pIC50: −log10 of the molar value.

T1 sequence (P48730 whole entry): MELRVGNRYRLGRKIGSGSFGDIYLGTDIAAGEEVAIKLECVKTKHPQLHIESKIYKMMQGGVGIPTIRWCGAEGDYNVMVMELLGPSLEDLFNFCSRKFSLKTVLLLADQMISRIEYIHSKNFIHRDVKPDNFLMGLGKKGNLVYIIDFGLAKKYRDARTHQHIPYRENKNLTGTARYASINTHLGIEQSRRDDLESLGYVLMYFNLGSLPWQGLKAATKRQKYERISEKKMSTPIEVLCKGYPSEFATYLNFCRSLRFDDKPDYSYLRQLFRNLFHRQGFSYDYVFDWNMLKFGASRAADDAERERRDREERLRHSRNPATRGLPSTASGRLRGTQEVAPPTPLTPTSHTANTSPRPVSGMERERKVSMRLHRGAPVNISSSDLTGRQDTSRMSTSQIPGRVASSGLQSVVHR

In the case of `O=C(Nc1cc(-c2[nH]c3cc(Cl)cnc3c2-c2ccccn2)ccn1)C(CC(F)F)c1ccc(F)cc1` (single isomer, unassigned) [Example 89, (−)—N-{4-[6-chloro-3-(pyridin-2-yl)-1H-pyrrolo[3,2-b]pyridin-2-yl]pyridin-2-yl}-4,4-difluoro-2-(4-fluorophenyl)butanamide], the values for the pIC50 (at full-length human CSNK1D; in assay [1]) were 6.98 and 7.05, respectively.

With `O=C(Nc1cc(-c2[nH]c3c(OC[C@@H]4COCCO4)cc(F)nc3c2-c2ccccn2)ccn1)C(CC(F)F)c1ccc(F)cc1` (mixture of isomers) [Example 57, (2RS)—N-(4-{7-[(2S)-1,4-dioxan-2-ylmethoxy]-5-fluoro-3-(pyridin-2-yl)-1H-pyrrolo[3,2-b]pyridin-2-yl}pyridin-2-yl)-4,4-difluoro-2-(4-fluorophenyl)butanamide], the results for the pIC50 (at full-length human CSNK1D; in assay [1]) were 8.20 and 8.10, respectively.

On to `O=C(Nc1cc(-c2[nH]c3cc(Cl)nnc3c2-c2ccccn2)ccn1)C(CC(F)F)c1ccc(F)cc1` (racemic) [Example 68, (2RS)—N-{4-[3-chloro-7-(pyridin-2-yl)-5H-pyrrolo[3,2-c]pyridazin-6-yl]pyridin-2-yl}-4,4-difluoro-2-(4-fluorophenyl)butanamide], for which the pIC50 on full-length human CSNK1D is 7.84; in assay [1], 8.16.

For `O=C(Nc1cc(-c2[nH]c3c(O[C@H]4CCOC4)ncnc3c2-c2ccccn2)ccn1)C(CC(F)F)c1ccc(F)cc1` (single isomer, unassigned) [Example 73, (2R or S)-4,4-difluoro-2-(4-fluorophenyl)-N-{4-[4-{[(3S)-oxolan-3-yl]oxy}-7-(pyridin-2-yl)-5H-pyrrolo[3,2-d]pyrimidin-6-yl]pyridin-2-yl}butanamide], the figures for the pIC50 (at full-length human CSNK1D; in assay [1]) were 8.40 and 8.38, respectively.

Turning to `O=C(Nc1cc(-c2[nH]c3c(OCC(F)F)ncnc3c2-c2ccccn2)ccn1)C(CC(F)F)c1ccc(F)cc1` (single isomer, unassigned) [Example 80, (2R or S)—N-{4-[4-(2,2-difluoroethoxy)-7-(pyridin-2-yl)-5H-pyrrolo[3,2-d]pyrimidin-6-yl]pyridin-2-yl}-4,4-difluoro-2-(4-fluorophenyl)butanamide], the pIC50 on full-length human CSNK1D is 7.58; in assay [1], 7.77.

On to `O=C(Nc1cc(-c2[nH]c3c(N4CCNCC4)ccnc3c2-c2ccccn2)ccn1)C(CC(F)F)c1ccc(F)cc1` (racemic) [Example 92, (2RS)-4,4-difluoro-2-(4-fluorophenyl)-N-{4-[7-(piperazin-1-yl)-3-(pyridin-2-yl)-1H-pyrrolo[3,2-b]pyridin-2-yl]pyridin-2-yl}butanamide], for which the pIC50 is 8.20 on full-length human CSNK1D and 8.63 in assay [1].

In the case of `O=C(Nc1cc(-c2[nH]c3ccc(F)nc3c2-c2ccccn2)ccn1)[C@@H](CC(F)F)c1ccc(F)cc1` (single isomer, unassigned) [Example 2], the pIC50 at full-length human CSNK1D is 8.58; in assay [1], 8.30.

On to `Cc1ccnc2c(-c3ccccn3)c(-c3ccnc(NC(=O)C(CC(F)F)c4ccc(F)cc4)c3)[nH]c12` (stereo not drawn) [Example 84, 4,4-difluoro-2-(4-fluorophenyl)-N-{4-[7-methyl-3-(pyridin-2-yl)-1H-pyrrolo[3,2-b]pyridin-2-yl]pyridin-2-yl}butanamide], for which the pIC50 on full-length human CSNK1D is 8.13; in assay [1], 8.32.

Turning to `O=C(Nc1cc(-c2[nH]c3c(O[C@H]4CCOC4)cc(F)nc3c2-c2ccccn2)ccn1)C(CC(F)F)c1ccc(F)cc1` (single isomer, unassigned) [Example 55, (2R or S)-4,4-difluoro-N-{4-[5-fluoro-7-{[(3S)-oxolan-3-yl]oxy}-3-(pyridin-2-yl)-1H-pyrrolo[3,2-b]pyridin-2-yl]pyridin-2-yl}-2-(4-fluorophenyl)butanamide], the figures for the pIC50 (at full-length human CSNK1D; in assay [1]) were 7.60 and 7.74, respectively.

For the origin of these results see patent US12692261B2, “Substituted heterocyclic compounds and therapeutic uses thereof” (Bayer Aktiengesellschaft, priority 2020, dated 2026).
